Measured values reported in US7129211B2, “Adipocyte Insulin adpinsl with Insulin A and B chains and an effective method of treating type 2 diabetes in a subject using adipocyte insulin” (Council of Scientific and Industrial Research, priority 2002, dated 2006).
Entries after “also recorded” stand apart in the source; their conditions may differ.

Key:
carp adipocytes = experiment: Determination of insulin activity in vitro: D-14C-glucose uptake by adipocytes; type: cell-based, carp Catla catla
Procedure: (b) Effect of AdpInsl and porcine insulin (PI) on glucose uptake by carp adipocytes. Adipocytes 1×10^5 cells/incubation, suspended in MEM containing 1% fetal calf serum and preincubated for 2 hours in the absence of insulin, after addition of D-^14C-glucose uptake was determined by the procedure described under the “Experimental procedures”. *p<0.05 when AdpInsl is compared with porcine insulin.
Determination of insulin activity in vitro—Freshly prepared adipocytes were suspended in the MEM and after 2 h 1.0 microCi of D-(^14C) glucose (final concentration 25 uM| containing was added to the adipocyte incubation. 25 ng/ml of AdpInsl or porcine insulin was added to the incubation and uptake of glucose was measured by following a previously described method (21). Initial rates of glucose uptake was determined from the incubation of adipocyte without insulin. The reaction was stopped at 3 min by washing the cells three times with ice cold MEM in the presence of 0.3 mM phloretin to correct the glucose uptake data from simple diffusion and nonspecific trapping of radioactivity.

[1] = tested on: streptozotocin induced diabetic rat; experiment: Biological activity of purified adipocyte insulin on streptozotocin induced diabetic rat; type: in vivo
Procedure: FIG. 5. Determination of biological activity of purified adipocyte insulin on streptozotocin induced diabetic rat. (a) The male Sprague Dawley rats of 100–150 g weight were selected for streptozotocin (STZ) treatment. […] (A) STZ untreated rats, only vehicle (0.9% saline) injected (n-6), (B) STZ rat, vehicle injected (n-6), (C) STZ rat injected with AdpInsl 10 μg/100 g body wt of rat (n-6). (D) STZ rat injected with 10 ug/100 g body wt of rat (n=6J porcine insulin. Each value is ±SEM of 6 observations. p<0.001 when C is compared with B,**p<0.05 when C is compared with D.
Insulin injection-Adipocyte IR-insulin (20 ug per 100 gm body weight) from incubation medium or 10 ug AdpInsl or porcine insulin was intraperitoneally injected into the male Sprague Dawley rats weighing between 100–150 g. After 6 hrs of injection blood was collected by retroorbital puncture using capillary tube, centrifuged to collect plasma and glucose content was determined by glucose-glucose oxidase method.

AdpInsl: Insulin purified from Catla catla carp adipocytes, A chain SEQ ID No. 1 (21 aa), B chain SEQ ID No. 2 (30 aa) (chain 1 GIVEQCCHKPCSIFELQNYCN; chain 2 PGAPQHLCGSHLVDALYLVCGPTGFFYNPK; listed as Catla catla)
increase in glucose uptake by adipocyte (carp adipocytes; 25 ng/ml insulin, 1x10^5 cells/incubation, uptake stopped at 3 min): more than 2 fold
stimulation of glucose uptake compared with porcine insulin (carp adipocytes; 25 ng/ml of each insulin, p<0.05): significantly higher; also recorded: more actively than porcine insulin
hypoglycemic activity greater than porcine insulin ([1]; STZ rat, 10 ug/100 g body wt each insulin, p<0.05): 25%
hyperglycemia ([1]; STZ rat, 10 ug/100 g body wt i.p., 6 hrs, p<0.001 compared with control): significantly reduced hyperglycemia
hypoglycemic effect compared to porcine insulin ([1]; streptozotocin induced diabetic rat): significantly stronger hypoglycemic effect
